“And” between values parts separate entries of the source, which are not always exact repeats. Equal entries are not always repeated.
Columns and labels:
Format in all cases: in vitro ADME
[1] = Microsomal stability, mouse; conditions: for CLint in vivo: scaled up using PBSF
Description: (§1) The metabolic stability assay was performed by incubating compounds individually (0.8, 4, or 20 µM) with mouse, rat, dog and human liver microsomes (Fisher, 0.5 mg/mL protein concentration) at 37 °C. The metabolic reaction was initiated by the addition of a NADPH-regenerating system and quenched at various time points by the addition of acetonitrile according to a published method.
(§2) The remaining concentration of each compound was measured as a ratio of peak area to the internal standard. The log peak area ratio was plotted vs. time (h), and the slope was determined to calculate the elimination rate constant [k = (− 2.303) * slope]. If deviation from first order kinetics was evident, only the initial linear portion of the plot was used to determine the rate constate, k. The half-life (h) was calculated as t1/2 = 0.693/k. Intrinsic clearance in vitro was calculated as CLintin vitro = (1000)*(0.693/t1/2*60)/0.5, where microsomal concentration in the reaction solution was 0.5 mg/mL; 1000 and 60 are scaling factors for volume (µL) and time (min), respectively. The intrinsic in vitro clearance was scaled to the intrinsic in vivo clearance using physiology based scaling factor (PBSF): CLint in vivo= CLint in vitro *PBSF: (microsome protein/gram liver) * (gram liver/kg b.w.), with PBSF: 47 (mouse), 47(rat), 58 (dog), 32 (human); and liver weight proportions: 54.9 (mouse), 36.6 (rat), 32.9 (dog) 25.7 (human).

[2] = Microsomal stability, rat; conditions: for CLint in vivo: scaled up using PBSF
Description: as §1, §2

rat plasma proteins = assay: Plasma protein binding (RED), rat; conditions: average of 20, 4, 0.8 µM
Description: (§3) A Rapid Equilibrium Dialysis (RED) Plate (Thermo Scientific, catalog #, PI-90007) was used to determine the percentage of compound binding to plasma proteins. The positive control for this experiment was propranolol-HCl (10 mM in DMSO) and the internal standard was warfarin (2 µM in methanol). 10 mM stocks of compound in DMSO were diluted with DMSO acetonitrile (1:4, v:v) to three different intermediate concentrations: high (2 mM), medium (0.4 mM) and low (0.08 mM). A 10 mM stock of propranolol in DMSO was diluted to 0.4 mM concentration in DMSO:acetonitrile (1:4 v:v). In 16 Eppendorf tubes, the control (10 µL) or each of three compound dilutions (10 µL) were each added to separate aliquots of mouse, rat, dog, and human plasma (990 µL). In the RED plate, potassium phosphate buffer (500 µL, 0.1 M, pH 7.4, 37 °C) was placed in every white well and each plasma/compound mixture was added to each of 3 red wells. […] The compounds and internal standard were detected by selected ion recording (SIR). Using the peak area ratio of compound to warfarin from the SIR spectra, the percentage of free compound [1] and bound compound [2] were calculated using the following equations: (1) % free = (concentration buffer chamber/concentration plasma chamber)*100, and (2) % bound = 100 − % free.

CYP3A4 = target: T1, CYP3A4 (Homo sapiens, UniProt P08684); assay: CYP450 inhibition, CYP3A4
T1 construct: purchased Cypex Ltd (Bactosomes)

mouse plasma proteins = assay: Plasma protein binding (RED), mouse; conditions: average of 20, 4, 0.8 µM
Description: as §3

Caco-2 cells = assay: Caco-2 permeability; conditions: for Caco-2 Efflux Ratio: B→A / A→B
Description: Caco-2 cells were maintained at 37 °C in a humidified incubator with an atmosphere of 5% CO2. The cells were cultured in Eagle's Minimum Essential Medium (EMEM) containing 20% fetal bovine serum (FBS) in 75 cm^2 flasks, supplemented with 100 units/ml of penicillin and 100 µg/mL of streptomycin. The Caco-2 cells were seeded onto inserts of a 96-well plate (HTS-Transwell inserts, surface area: 0.143 cm^2, Corning) at a cell density of 0.5 × 10^5 cells/insert. The culture medium was replaced every 2 days, and the cells were maintained for 7 days at 37 °C and 5% CO2. Caco-2 cell monolayers with trans epithelial electrical resistance (TEER) values greater than 400 Ω cm^2 were used for the subsequent assays. The permeability assay was initiated by adding an appropriate volume of HBSS/HEPES containing test compounds to either the apical (A to B) or basolateral (B to A) side of the monolayer, then adding the blank HBSS/HEPES buffer in the receiving compartment, the basolateral or apical side of the monolayer. The Caco-2 cell monolayers were then incubated for 2 h at 37 °C. To make a sample plate, fractions were collected from the basolateral side or apical side and quenched by adding onefold volume of acetonitrile with internal standard (2 µM warfarin) to each well. In a reference plate, the above HBSS/HEPES buffer containing test compounds were diluted with quenching solvent the same as that in the sample plate. 10 µL of supernatants were injected and analysis by UPLC/MS (Waters; Milford, MA). The test compound concentrations were quantified by comparing the sample well to the reference well via peak areas. The A→B (or B→A) apparent permeability coefficients (Papp, 10^–6 cm/s) of each compound were calculated using the equation, Papp = dQ/dt × 1/AC0. The flux of a drug across the monolayer was dQ/dt (µmol/s). The initial drug concentration on the apical or basolateral side was C0 (µM). The surface area of the monolayer was A (cm^2). The efflux ratio is the ratio of apparent permeability for a test compound in the basolateral to apical (B → A) direction relative to that in the A → B direction. All compounds were tested in triplicate.

[3] = mouse microsomes, 0.8 µM, independent replicate to Table 4
[4] = mouse microsomes, 4 µM, independent replicate to Table 4
[5] = mouse microsomes, 20 µM, independent replicate to Table 4
[6] = rat microsomes, 0.8 µM, independent replicate to Table 4
[7] = rat microsomes, 4 µM, independent replicate to Table 4
[8] = rat microsomes, 20 µM, independent replicate to Table 4
[9] = 10 µM, probe substrate Midazolam, replicate measurements
[10] = mouse microsomes, 20, 4, 0.8 µM

T1 sequence (P08684 whole entry): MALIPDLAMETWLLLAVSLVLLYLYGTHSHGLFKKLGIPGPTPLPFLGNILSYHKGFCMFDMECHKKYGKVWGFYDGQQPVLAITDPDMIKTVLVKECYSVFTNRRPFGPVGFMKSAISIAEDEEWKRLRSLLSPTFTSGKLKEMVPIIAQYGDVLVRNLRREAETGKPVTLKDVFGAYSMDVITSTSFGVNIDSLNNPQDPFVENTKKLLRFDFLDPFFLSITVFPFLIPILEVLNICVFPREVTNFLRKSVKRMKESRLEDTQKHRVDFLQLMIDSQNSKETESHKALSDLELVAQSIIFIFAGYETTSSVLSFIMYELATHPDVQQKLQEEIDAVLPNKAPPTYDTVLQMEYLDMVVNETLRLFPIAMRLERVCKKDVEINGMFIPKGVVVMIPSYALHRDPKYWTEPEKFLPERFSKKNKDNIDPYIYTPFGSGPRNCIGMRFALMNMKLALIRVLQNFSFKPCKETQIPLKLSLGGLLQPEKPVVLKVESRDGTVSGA

Structure (SMILES) | CLint ([1]; mouse microsomes, 0.8 µM) [µl/min/mg protein] | t1/2 ([1]; mouse microsomes, 0.8 µM) [h] | CLint in vitro [1, 3] [µl/min/mg protein] | CLint in vivo ([1]; mouse microsomes, 0.8 µM) [mL/min/kg] | CLint in vitro [1, 4] [µl/min/mg protein] | CLint in vivo ([1]; mouse microsomes, 4 µM) [mL/min/kg] | CLint in vitro [1, 5] [µl/min/mg protein] | CLint in vivo ([1]; mouse microsomes, 20 µM) [mL/min/kg] | CLint ([2]; rat microsomes, 0.8 µM) [µl/min/mg protein] | t1/2 ([2]; rat microsomes, 0.8 µM) [h] | CLint in vitro [2, 6] [µl/min/mg protein] | CLint in vivo ([2]; rat microsomes, 0.8 µM) [mL/min/kg] | CLint in vitro [2, 7] [µl/min/mg protein] | CLint in vivo ([2]; rat microsomes, 4 µM) [mL/min/kg] | CLint in vitro [2, 8] [µl/min/mg protein] | CLint in vivo ([2]; rat microsomes, 20 µM) [mL/min/kg] | % bound (rat plasma proteins) [%] | inhibition of CYP3A4 (CYP3A4; [9]) | % bound (mouse plasma proteins) [%] | Permeability, Caco-2 (Caco-2 cells; Apical to Basal) | further results
N#Cc1cc(NC(=O)[C@H]2c3ccccc3C(=O)N(CC(F)(F)F)[C@@H]2c2cccnc2)ccc1F [(+)-SJ733] | 35.4 ± 2.1 | 0.7 ± 0.1 | 33.9 ± 1.3 | 79.3 ± 3.0 | 27.2 ± 1.3 | 63.8 ± 2.9 | 15.9 ± 2.2 | 37.3 ± 5.3 | < 7 | > 4 | <7 | <11.7 | <7 | <11.7 | <7 | <11.7 | – | – | – | – | –
N#Cc1cc(NC(=O)C2c3ccccc3C(=O)N(CC(F)(F)F)C2c2cccnc2)ccc1F (racemic) [(r)-SJ733] | – | – | 9.1 ± 0.5 | 21.4 ± 1.3 | 10 ± 0.5 | 23.4 ± 1.1 | <7 | < 13.5 | – | – | <7 | <11.7 | <7 | <11.7 | <7 | <11.7 | 90.0 ± 1.7 | 42% and 33% | 95.7 ± 0.6 | 9.4 ± 1.6 10^–6 cm/s | Permeability, Caco-2 (Caco-2 cells; Basolateral to Apical): 11.0 ± 1.6 10^–6 cm/s; Caco-2 Efflux Ratio (Caco-2 cells): 1.17 ± 0.04
N#Cc1cc(NC(=O)C2c3ccccc3C(=O)N(CC(F)(F)F)C2c2cn[nH]c2)ccc1F (racemic) [(r)-SJ311] | – | – | – | – | – | – | – | – | – | – | – | – | – | – | – | – | 91.0 ± 0.1 | 54% and 52% | 93.7 ± 0.7 | 12.5 ± 0.7 10^–6 cm/s | Permeability, Caco-2 (Caco-2 cells; Basolateral to Apical): 16.6 ± 2.0 10^–6 cm/s; Caco-2 Efflux Ratio (Caco-2 cells): 1.34 ± 0.21; CLint in vitro [1, 10]: <7 µl/min/mg protein; CLint in vivo [1, 10]: < 13.5 mL/min/kg; CLint in vitro ([2]; rat microsomes, 20, 4, 0.8 µM): <7 µl/min/mg protein; CLint in vivo ([2]; rat microsomes, 20, 4, 0.8 µM): <11.7 mL/min/kg
N#Cc1cc(NC(=O)[C@H]2c3ccccc3C(=O)N(CC(F)(F)F)[C@@H]2c2cn[nH]c2)ccc1F [SJ311] | – | – | – | – | – | – | – | – | – | – | – | – | – | – | – | – | – | – | – | – | CYP3A4 inhibition, in words (CYP3A4): moderate inhibitors; inhibition at 10 µM (CYP3A4; human, pH 7.4, 10 µM, probe substrate Midazolam, replicate measurements): 53%
N#Cc1cc(NC(=O)[C@H]2c3ccccc3C(=O)N(CC(F)(F)F)[C@@H]2c2cn[nH]c2)ccc1F [(+)-SJ311] | < 7 | > 4 | – | – | – | – | – | – | < 7 | > 4 | – | – | – | – | – | – | – | – | – | – | –
N#Cc1cc(NC(=O)[C@H]2c3ccccc3C(=O)N(CC(F)(F)F)[C@@H]2c2cccnc2)ccc1F (racemic) [SJ733] | – | – | – | – | – | – | – | – | – | – | – | – | – | – | – | – | – | – | – | – | CYP3A4 inhibition, in words (CYP3A4): moderate inhibitors

— PMC7893776, “Selecting an anti-malarial clinical candidate from two potent dihydroisoquinolones” (Malaria Journal, 2021)
